Measurements published in the supplement of paper PMC11061612.

Columns and labels:
Assay in all cases: Bliss excess, mean over the matrix (fraction); higher = more synergy
[1] = system: NCI-H929 (Plasma Cell Myeloma)
Outline: (§1)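 Cell lines grown in DMEM/F12 or RPMI with 10% FBS were plated in 1536-well plates and held 24 hours at 37°C, 5% CO2 before 72 hours of exposure to two-drug dose matrices, with DMSO typically at 0.2%. CellTiter-Glo 2.0 luminescence gave viability, which was converted to inhibition. Vehicle wells were set to 0 and blank wells to 1. Combination Emax is the second-highest inhibition in the matrix, and Bliss excess is the observed combination effect minus the expected EA + EB − EA·EB, where EA and EB are the single-agent effects.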

[2] = system: KYSE-270 (Esophageal Squamous Cell Carcinoma)
Outline: as §1

[3] = system: NCI-H661 (Non-Small Cell Lung Carcinoma)
Outline: as §1

[4] = system: KY821 (Acute Myeloid Leukemia)
Outline: as §1

[5] = system: PC-3 (Prostate Carcinoma)
Outline: as §1

[6] = system: ESO51 (Esophageal Adenocarcinoma)
Outline: as §1

G-361 (Melanoma) = system: G-361 (Melanoma)
Outline: as §1

[7] = system: KU812 (Chronic Myelogenous Leukemia)
Outline: as §1

[8] = system: COR-L279 (Small Cell Lung Carcinoma)
Outline: as §1

[9] = system: SU-DHL-5 (B-Cell Non-Hodgkin's Lymphoma)
Outline: as §1

NCI-H2731 (Mesothelioma) = system: NCI-H2731 (Mesothelioma)
Outline: as §1

[10] = system: NCI-H520 (Squamous Cell Lung Carcinoma)
Outline: as §1

[11] = system: T-T (Esophageal Squamous Cell Carcinoma)
Outline: as §1

[12] = system: MN-60 (B-Lymphoblastic Leukemia)
Outline: as §1

[13] = system: KP-3 (Pancreatic Carcinoma)
Outline: as §1

[14] = system: SUP-B15 (B-Lymphoblastic Leukemia)
Outline: as §1

[15] = system: 8505C (Thyroid Gland Carcinoma)
Outline: as §1

[16] = system: MOG-G-CCM (Low Grade Glioma)
Outline: as §1

[17] = system: IM-95 (Gastric Carcinoma)
Outline: as §1

[18] = system: RPMI-8226 (Plasma Cell Myeloma)
Outline: as §1

SMILES | Bliss excess [1] | Bliss excess [2] | Bliss excess [3] | Bliss excess [4] | Bliss excess [5] | Bliss excess [6] | Bliss excess (G-361 (Melanoma)) | Bliss excess [7] | Bliss excess [8] | Bliss excess [9] | Bliss excess (NCI-H2731 (Mesothelioma)) | Bliss excess [10] | Bliss excess [11] | Bliss excess [12] | Bliss excess [13] | Bliss excess [14] | Bliss excess [15] | Bliss excess [16] | Bliss excess [17] | Bliss excess [18]
CCc1c2c(nc3ccc(O)cc13)-c1cc3c(c(=O)n1C2)COC(=O)[C@]3(O)CC [SN-38] + CN(C)CCCOc1ccc(-c2ccc3ncc4c(c3c2)n(C2CCOCC2)c(=O)n4C)cn1 [AZD0156] (first compound max 0.3 µM, 7x7, partner max 1 µM) | -0.089 | -0.0393 | 0.0286 | 0.055 | -0.0306 | -0.031 | 0.0105 | -0.027 | 0.0163 | 0.0712 | -0.0407 | 0.0044 | -0.0151 | 0.0279 | -0.0372 | -0.0408 | 0.014 | 0.0143 | 0.0208 | 0.0218
C[C@@H](c1ccc2nccn2c1)n1nnc2ncc(-c3cnn(C)c3)nc21 [Savolitinib] + Cc1c2c(nn1C)CSCc1cc(n(C)n1)CSc1cc(c3ccccc3c1)OCCCc1c(C(=O)O)n(C)c3c-2c(Cl)ccc13 [AZD5991] (first compound max 1 µM, 7x7, partner max 1 µM) | 0.0063 | 0.0527 | -0.0666 | -0.0415 | -0.0402 | -0.0013 | -0.0044 | 0.0064 | 0.0219 | -0.0269 | -0.0586 | -0.0539 | -0.0291 | -0.0334 | -0.0785 | -0.0555 | -0.0324 | -0.0683 | -0.0166 | -0.0125
Cn1cnc2c(F)c(Nc3ccc(Br)cc3Cl)c(C(=O)NOCCO)cc21 [Selumetinib] + CC(C)n1c(=O)n(C)c2cnc3cc(F)c(-c4ccc(OCCCN5CCCCC5)nc4)cc3c21 [AZD1390] (first compound max 10 µM, 7x7, partner max 0.3 µM) | 0.0105 | -0.0376 | -0.0559 | 0.0169 | -0.0688 | 0.0114 | -0.0582 | -0.0227 | -0.0094 | 0.0267 | -0.0364 | -0.0486 | -0.0162 | -0.0402 | -0.0456 | -0.0281 | -0.0717 | -0.0476 | -0.0078 | 0.0158
Cc1c2c(nn1C)CSCc1cc(n(C)n1)CSc1cc(c3ccccc3c1)OCCCc1c(C(=O)O)n(C)c3c-2c(Cl)ccc13 [AZD5991] + CCN(CCO)CCCOc1ccc2c(Nc3cc(CC(=O)Nc4cccc(F)c4)[nH]n3)ncnc2c1 [AZD2811] (first compound max 1 µM, 7x7, partner max 1 µM) | 0.0409 | 0.0998 | 0.0328 | 0.0053 | -0.0328 | 0.0031 | 0.0481 | -0.0519 | 0.0162 | -0.06 | -0.0023 | 0.0632 | 0.0614 | 0.0086 | -0.0026 | 0.0125 | 0.119 | 0.0013 | 0.0605 | 0.0744
Cc1c2c(nn1C)CSCc1cc(n(C)n1)CSc1cc(c3ccccc3c1)OCCCc1c(C(=O)O)n(C)c3c-2c(Cl)ccc13 [AZD5991] + CC1(C)CCC(CN2CCN(c3ccc(C(=O)NS(=O)(=O)c4ccc(NCC5CCOCC5)c([N+](=O)[O-])c4)c(Oc4cnc5[nH]ccc5c4)c3)CC2)=C(c2ccc(Cl)cc2)C1 [Venetoclax] (first compound max 1 µM, 7x7, partner max 1 µM) | -0.033 | 0.0348 | 0.052 | 0.0331 | -0.0312 | -0.0008 | 0.008 | 0.0353 | 0.0071 | -0.0379 | -0.0519 | -0.0019 | -0.0051 | -0.031 | -0.0533 | 0.0213 | -0.0253 | -0.0199 | 0.0119 | 0.007
NC1(C(=O)N[C@@H](CCO)c2ccc(Cl)cc2)CCN(c2ncnc3[nH]ccc23)CC1 [Capivasertib] + CC(=O)c1c(C)c2cnc(Nc3ccc(N4CCNCC4)cn3)nc2n(C2CCCC2)c1=O [Palbociclib] (first compound max 10 µM, 7x7, partner max 10 µM) | -0.0066 | -0.0135 | 0.0204 | -0.0078 | 0.0068 | -0.0475 | -0.0381 | 0.0662 | -0.0443 | 0.0287 | -0.0008 | 0.0018 | -0.0221 | -0.0365 | -0.0372 | -0.007 | -0.0475 | -0.0389 | 0.0182 | 0.01
COc1cc2c(cc1OCCCCCOc1cc3c(cc1OC)C(=O)N1C=C(C)C[C@H]1C=N3)N=C[C@@H]1CC(C)=CN1C2=O [SG3199] + O=C(c1cc(Cc2n[nH]c(=O)c3ccccc23)ccc1F)N1CCN(C(=O)C2CC2)CC1 [Olaparib] (first compound max 0.001 µM, 7x7, partner max 10 µM) | -0.0333 | -0.0595 | -0.0432 | -0.0244 | -0.0417 | -0.0129 | -0.0294 | -0.0288 | -0.0351 | -0.027 | -0.0505 | -0.0503 | -0.0418 | -0.027 | -0.0424 | -0.0051 | -0.0031 | -0.0387 | -0.0392 | -0.0213
Cc1c2c(nn1C)CSCc1cc(n(C)n1)CSc1cc(c3ccccc3c1)OCCCc1c(C(=O)O)n(C)c3c-2c(Cl)ccc13 [AZD5991] + C[C@@H]1COCCN1C2=NC(=NC(=C2)C3(CC3)[S@](=N)(=O)C)C4=C5C=CNC5=NC=C4 [AZD6738] (first compound max 1 µM, 7x7, partner max 10 µM) | -0.0296 | 0.0289 | 0.0528 | -0.0356 | 0.035 | 0.0124 | 0.0356 | 0.0296 | -0.0057 | -0.0059 | -0.0074 | -0.0091 | 0.0461 | -0.0081 | 0.0405 | 0.0181 | 0.0148 | -0.0252 | -0.0412 | 0.008
COc1cccc(OCCCN)c1-c1cc(Nc2cnc(C#N)cn2)n[nH]1 [Prexasertib] + O=C(c1cc(Cc2n[nH]c(=O)c3ccccc23)ccc1F)N1CCN(C(=O)C2CC2)CC1 [Olaparib] (first compound max 1 µM, 7x7, partner max 10 µM) | -0.0638 | -0.0789 | -0.0373 | -0.0266 | -0.0355 | -0.248 | -0.0411 | -0.0947 | -0.0493 | -0.0097 | -0.0228 | -0.0756 | 0.0186 | -0.0494 | -0.0444 | -0.0191 | -0.0434 | -0.053 | -0.0102 | 0.0124
CN(CCO)CC[C@H](CSc1ccccc1)Nc1ccc(S(=O)(=O)NC(=O)c2ccc(N3CCC([C@@H](O)c4ccccc4-c4ccc(Cl)cc4)CC3)cc2)cc1S(=O)(=O)C(F)(F)F [AZD4320] + CCN(CCO)CCCOc1ccc2c(Nc3cc(CC(=O)Nc4cccc(F)c4)[nH]n3)ncnc2c1 [AZD2811] (first compound max 1 µM, 7x7, partner max 1 µM) | -0.0119 | -0.0072 | -0.0322 | 0.162 | -0.0127 | 0.0025 | 0.0679 | -0.0082 | 0.051 | -0.143 | -0.005 | 0.0077 | 0.01 | -0.0231 | -0.0476 | 0.0255 | 0.0545 | 0.0683 | 0.134 | 0.0003
CN(CCO)CC[C@H](CSc1ccccc1)Nc1ccc(S(=O)(=O)NC(=O)c2ccc(N3CCC([C@@H](O)c4ccccc4-c4ccc(Cl)cc4)CC3)cc2)cc1S(=O)(=O)C(F)(F)F [AZD4320] + Cn1cnc2c(F)c(Nc3ccc(Br)cc3Cl)c(C(=O)NOCCO)cc21 [Selumetinib] (first compound max 1 µM, 7x7, partner max 3 µM) | 0.0597 | 0.0148 | 0.0414 | 0.0262 | -0.0148 | 0.0355 | 0.028 | 0.0375 | -0.0029 | 0.0368 | -0.0124 | -0.0205 | 0.0564 | 0.0026 | 0.0111 | 0.0853 | 0.0641 | -0.136 | 0.0132 | 0.0202
COc1cc2ncnc(Nc3ccc(F)c(Cl)c3)c2cc1OCCCN1CCOCC1 [Gefitinib] + CC(C)n1c(=O)n(C)c2cnc3cc(F)c(-c4ccc(OCCCN5CCCCC5)nc4)cc3c21 [AZD1390] (first compound max 10 µM, 7x7, partner max 0.3 µM) | -0.0092 | -0.003 | -0.097 | -0.0553 | -0.0643 | -0.0488 | -0.0718 | -0.0436 | -0.0419 | -0.0317 | -0.0434 | -0.0477 | -0.0411 | -0.0444 | -0.074 | -0.0673 | -0.0691 | -0.0271 | -0.0527 | -0.0547
Cc1c2c(nn1C)CSCc1cc(n(C)n1)CSc1cc(c3ccccc3c1)OCCCc1c(C(=O)O)n(C)c3c-2c(Cl)ccc13 [AZD5991] + Cn1cnc2c(F)c(Nc3ccc(Br)cc3Cl)c(C(=O)NOCCO)cc21 [Selumetinib] (first compound max 1 µM, 7x7, partner max 3 µM) | 0.0275 | 0.0409 | -0.0169 | 0.0044 | -0.0029 | 0.0896 | 0.0083 | 0.0224 | -0.0172 | 0.0221 | -0.0354 | -0.0116 | 0.0289 | -0.0125 | -0.0378 | 0.0806 | 0.0319 | -0.0241 | 0.0906 | 0.0045
CC(=O)c1c(C)c2cnc(Nc3ccc(N4CCNCC4)cn3)nc2n(C2CCCC2)c1=O [Palbociclib] + Cn1cnc2c(F)c(Nc3ccc(Br)cc3Cl)c(C(=O)NOCCO)cc21 [Selumetinib] (first compound max 10 µM, 7x7, partner max 10 µM) | 0.0643 | -0.0512 | -0.0533 | 0.0803 | -0.0627 | 0.0041 | -0.0785 | -0.0536 | -0.025 | 0.101 | -0.0341 | -0.054 | 0.0252 | -0.0405 | -0.0328 | 0.0147 | -0.0377 | -0.0511 | 0.0356 | 0.142
